Patent publication US20100227797A1, “USE OF CYCLOLIGNANS FOR THE TREATMENT OF TYPE 2 DIABETES AND AS CONTRACEPTIVES” (AXELAR AB, priority 2006, published 2010)
“And” between values parts separate entries of the source, which are not always exact repeats. Identical values can stand only once. Marks after values point to notes of the source that are not given here.

Columns and labels:
[1] = Assay of blood glucose in mice after one week picropodophyllin treatment; type: in vivo, SCID mice; settings: 20 mg/kg/12 h i.p.
Protocol: Ten weeks old SCID mice were treated with PPP (20 mg/kg/12 h) intraperitoneally using DMSO as vehicle. Control mice were treated with vehicle only. Three mice were treated in each group. After treatment for 7 days, the mice were sacrificed 4 h after the last injections. Blood samples were taken and the concentration of glucose in the serum was determined by a dry slide technique using Vitros 950 Chemistry System. In this experiment, healthy SCID mice were treated with picropodophyllin by intraperitoneal injections twice daily, the dose being 20 mg/kg/12 h. The control group was treated with the vehicle only (totally per day: 20 μL DMSO). Each group included 3 mice.

[2] = system: macular degeneration lesions; assay: Laser induction of macular degeneration lesions, mouse model; type: in vivo, C57Bl/6 mice; parameters: Area of macular degeneration: scale not given here
Protocol: To induce macular degeneration lesions adult C57Bl/6 mice were anesthetized and three laser spots were placed in fundus flavimaculatus of the choroidea with a krypton red laser (614 nm, […], 0.05 second, 200 mW). The mice were then treated with PPP (20 mg/kg/12 h) intraperitoneally using DMSO as vehicle for two weeks. Control mice were treated with vehicle only. Twenty mice were treated in each group. Two weeks after the laser treatment, the animals were perfused with 3% FITC-conjugated high-molecular-weight dextran, sacrificed and choroidal flat mounts were prepared. Flat-mounts were examined with fluorescence microscopy Axioskop microscope. Macular degeneration lesions were identified as FITC-perfused vessels. Image-Pro Plus software was used to measure the area of each CNV lesion. Data were recorded as area of macular degeneration lesions (μm^2). Macular degeneration is the leading cause of vision loss. Macular degeneration lesions were induced in 40 adult C57Bl/6 mice by laser. Twenty animals received intraperitoneal (i.p.) injections of picropodophyllin (PPP; 20 mg/kg/12 h) for 2 weeks. Controls received i.p. injections of vehicle. Two weeks after the laser treatment the animals were sacrificed and choroidal flat mounts were prepared. Flat-mounts were examined with fluorescence microscopy. Image-Pro Plus software was used to measure the area of each CNV lesion.

[3] = system: implantation of the embryo; assay: Effect on implantation in a mouse model; type: in vivo, mice; settings: 20 mg/kg/12 h i.p., day 3 to 6 after plug
Protocol: The animals were put for mating and the vaginal plug was checked on the next morning. Six female mice positive for vaginal plug were treated with picropodophyllin (20 mg/kg/12 h, given intraperitoneally) and six with vehicle (controls) from day 3 to 6 after the plug. They were sacrificed on day 9 after ovulation. The organs collected were ovaries, uterus, liver and spleen for biochemical analysis.

[4] = system: ovulation; assay: Effect on ovulation in a mouse model; type: in vivo; settings: female mice
Protocol: Female mice were treated with picropodophyllin (PPP; 20 mg/kg/12 h, given intrapritoneally) on days −1 and 0 of mating. The vaginal plug was checked on the next morning. Six animals from each group were sacrificed 4 days after mating. The organs collected were ovaries, uterus, liver and spleen for biochemical analysis.

COc1cc([C@@H]2c3cc4c(cc3[C@H](O)[C@H]3COC(=O)[C@@H]23)OCO4)cc(OC)c1OC [PPP, picropodophyllin]
Effect on blood glucose levels ([1]; SCID mice, one week, compared to controls): decreased the blood glucose levels | Glucose level in serum ([1]; individual SCID mice, 7 days, sampled 4 h after last injection, 20 mg/kg): 4.5 mM (2×) and 5.7 mM | Glucose level in serum, mean ([1]; mean of 3 SCID mice, 7 days, vehicle control mean 7.0): 4.9 mM | Area of macular degeneration ([2]; mean, C57Bl/6 mice, 20 mg/kg/12 h i.p. for 2 weeks after laser, vehicle mean 2.565): Mean: 1.753 μm^2 | Decrease in macular degeneration lesion area ([2]; versus vehicle, 20 mg/kg/12 h i.p. for 2 weeks, statistically significant): 32% | Effect on implantation of the embryo ([3]; no statistical significance): interferes negatively with implantation | Number of pregnancies ([3]; 6 plug-positive female mice, sacrificed day 9, vehicle 4 of 6, not statistically significant): 2* | Number of mice with positive plug ([4]; 20 mg/kg/12 h i.p. on days -1 and 0 of mating, n = 36, vehicle 3 of 6): n = 0 | Percent ovulated mice ([4]; 20 mg/kg/12 h i.p. on days -1 and 0 of mating, vehicle 50%): 0% | Inhibition of ovulation ([4]; 20 mg/kg/12 h i.p., P=0.005919, Fishers exact test): did not ovulate at all
